{"source": "patent US20060228297A1", "about": "“Thorium-227 for use in radiotherapy of soft tissue disease” (priority 2003, published 2006)", "key": {"[1]": {"system": "patients with breast or prostate cancer", "experiment": "Phase I study of ^223Ra, single doses, neutrophil cell fractions (Example 8)", "format": "in vivo, humans", "conditions": "for Days to nadir (neutrophil cell fraction) / ˜% of baseline at nadir (neutrophil cell fraction): humans", "from_the_text": "In a phase I study in patients with breast or prostate cancer, dose levels of 37, 74, 130, 170 and 200 kBq/kg of ^223Ra were given as single doses. Neutrophil cell fractions were monitored as a sensitive measure of haematological toxicity."}, "humans": {"system": "humans", "experiment": "Estimate of ^223Ra toxicity from prior art (translated from ^224Ra dog data)", "conditions": "expected for humans, assuming similar haematological toxicity in dogs and humans", "from_the_text": "Because of the lack of human data on toxicity of radium-223 and radium-224, an assumed radiotoxicity for ^223Ra can be derived as follows, using published data for radium-224 in dogs. The decay series (including the decays of daughter nuclides) of both ^224Ra and ^223Ra causes an emission of four alpha panicles per radium atoms. The total alpha particle doses from ^223Ra and ^224Ra in equilibrium with daughters are approximately 26.3 and 27.1 MeV per transformation respectively and are therefore closely equivalent. The half-lives of ^224Ra is 3.62 days and for ^223Ra it is 11.43 days. This means that per activity unit injected, the skeletal dose from ^223Ra would be approximately 3.1 times that from ^224Ra, taking into account alpha energy and half-life differences, and assuming long-term biological retention of the radionuclide (i.e., the clearance is governed by the physical half-life of the radionuclide). This is a valid assumption because Ra is a Ca analogue and is readily incorporated into the skeleton.\nAt 350 kBq/kg death, caused by haematological dyscrasia resulting from bone marrow destruction, occurred in some subjects (3 dogs out of 8). It may therefore be assumed that the maximum tolerable dose of ^224Ra is between 120 and 350 kBq/kg in dogs. Translated into ^223Ra, as described above, this would correspond to 39-113 kBq/kg of ^223Ra. […]"}, "[2]": {"conditions": "then concentrated in the skeleton or excreted via intestinal and renal routes; cited from earlier work"}}, "data": [{"smiles": "[223Ra]", "note": "[^223Ra, radium-223]", "values": [{"measurement": "Dose that can be administered and tolerated", "setting": "[1]; human subjects", "result": "at least 200 kBq/kg"}, {"measurement": "Days to nadir (neutrophil cell fraction)", "setting": "[1]; 37 kBq/kg single dose", "result": 14, "unit": "days"}, {"measurement": "˜% of baseline at nadir (neutrophil cell fraction)", "setting": "[1]; 37 kBq/kg single dose", "result": "~60", "unit": "%"}, {"measurement": "Days to nadir (neutrophil cell fraction)", "setting": "[1]; 74 kBq/kg single dose", "result": 14, "unit": "days"}, {"measurement": "˜% of baseline at nadir (neutrophil cell fraction)", "setting": "[1]; 74 kBq/kg single dose", "result": "~60", "unit": "%"}, {"measurement": "Days to nadir (neutrophil cell fraction)", "setting": "[1]; 130 kBq/kg single dose", "result": 28, "unit": "days"}, {"measurement": "˜% of baseline at nadir (neutrophil cell fraction)", "setting": "[1]; 130 kBq/kg single dose", "result": "~50", "unit": "%"}, {"measurement": "Days to nadir (neutrophil cell fraction)", "setting": "[1]; 170 kBq/kg single dose", "result": 21, "unit": "days"}, {"measurement": "˜% of baseline at nadir (neutrophil cell fraction)", "setting": "[1]; 170 kBq/kg single dose", "result": "~40", "unit": "%"}, {"measurement": "Days to nadir (neutrophil cell fraction)", "setting": "[1]; 200 kBq/kg single dose", "result": 21, "unit": "days"}, {"measurement": "˜% of baseline at nadir (neutrophil cell fraction)", "setting": "[1]; 200 kBq/kg single dose", "result": "~30", "unit": "%"}, {"measurement": "Maximum tolerable dose, translated from ^224Ra dog data", "setting": "humans", "result": "39-113 kBq/kg"}, {"measurement": "Blood clearance", "setting": "[2]", "result": "very rapidly"}]}]}
